In patent US20090082203A1, “INSECTICIDAL BIS(SUBSTITUTED PHENYL)-1-{[4-(SATURATED HETEROCYCLYL-SUBSTITUTED)PHENYLMETHYL]- (4-PIPERIDYL)}METHANE DERIVATIVES” (priority 2004, published 2009):

System: tobacco budworm (Heliothis virescens [Fabricius])
Assay: surface-treated diet test against tobacco budworm
Assay type: in vivo
Conditions: for Percent Growth Inhibition: inhibition of insect weight relative to untreated controls
Protocol: Candidate insecticides were evaluated for activity against the tobacco budworm (Heliothis virescens [Fabricius]) in a surface-treated diet test.
In this test one mL of molten (65-70° C.) wheat germ-based artificial diet was pipetted into each well of a four by six (24 well) multi-well plate (ID# 430345-15.5 mm dia.×17.6 mm deep; Corning Costar Corp., One Alewife Center, Cambridge, Mass. 02140). The diet was allowed to cool to ambient temperature before treatment with candidate insecticide.
For a determination of insecticidal activity, solutions of the candidate insecticides were prepared for testing using a Packard 204DT Multiprobe® Robotic System (Packard Instrument Company, 800 Research Parkway, Meriden, Conn. 06450), in which the robot first diluted a standard 50 millimolar DMSO solution of candidate insecticide with a 1:1 water/acetone solution (V/V) in a ratio of 1:7 stock solution to water/acetone. The robot subsequently pipetted 40 microliters of the so-prepared solution onto the surface of the diet in each of three wells in the 24 multi-well plate. The process was repeated with solutions of seven other candidate insecticides. Once treated, the contents of the multi-well plate were allowed to dry, leaving 0.25 millimoles of candidate insecticide on the surface of the diet, or a concentration of 0.25 millimolar. Appropriate untreated controls containing only DMSO on the diet surface were also included in this test.
For evaluations of the insecticidal activity of a candidate insecticide at varying rates of application, the test was established as described above using sub-multiples of the standard 50 millimolar DMSO solution of candidate insecticide. For example, the standard 50 millimolar solution was diluted by the robot with DMSO to give 5, 0.5, 0.05, 0.005, 0.0005 millimolar, or more dilute solutions of the candidate insecticide. In these evaluations there were six replicates of each rate of application placed on the surface of the diet in the 24 multi-well plate, for a total of four rates of application of candidate insecticide in each plate.
In each well of the test plate was placed one second instar tobacco budworm larvae, each weighing approximately five milligrams. After the larvae were placed in each well, the plate was sealed with clear polyfilm adhesive tape. The tape over each well was perforated to ensure an adequate air supply. The plates were then held in a growth chamber at 25° C. and 60% relative humidity for five days (light 14 hours/day).
After the five-day exposure period insecticidal activity for each rate of application of candidate insecticide was assessed as percent inhibition of insect weight relative to the weight of insects from untreated controls, and percent mortality when compared to the total number of insects infested.
The test compounds of formula I are identified by numbers that correspond to those in Table 1.

[1] = 0.25 millimolar on the surface of the diet, second instar larvae, five-day exposure, compared to the total number of insects infested
[2] = 0.25 millimolar on the surface of the diet, second instar larvae, five-day exposure

Row | Compound | Percent Mortality [1] [%] | Percent Growth Inhibition [2] [%] | Percent Mortality (in vivo) [%]
1 | C[C@H]1OC(c2ccc(CN3CCC(C(O)(c4ccc(OC(F)(F)F)cc4)c4ccc(OC(F)(F)F)cc4)CC3)cc2)O[C@@H]1C (relative stereo) [Compound 120] | 100 | 100 | 
2 | C[C@H]1OC(c2ccc(C[N+]3([O-])CCC(C(O)(c4ccc(OC(F)(F)F)cc4)c4ccc(OC(F)(F)F)cc4)CC3)cc2)O[C@@H]1C (relative stereo) [Compound 124] | 100 | 100 | 
3 | [O-][N+]1(Cc2ccc(C3O[C@@H]4CCCC[C@H]4O3)cc2)CCC(C(O)(c2ccc(OC(F)(F)F)cc2)c2ccc(OC(F)(F)F)cc2)CC1 (relative stereo) [Compound 128] | 100 | 100 | 
4 | OC(c1ccc(OC(F)(F)F)cc1)(c1ccc(OC(F)(F)F)cc1)C1CCN(Cc2ccc(C3OCCO3)cc2)CC1 [Compound 1] |  | 100 | 100
5 | [O-][N+]1(Cc2ccc(C3OCCO3)cc2)CCC(C(O)(c2ccc(OC(F)(F)F)cc2)c2ccc(OC(F)(F)F)cc2)CC1 (centres unmarked) [Compound 2] |  | 100 | 100
6 | CC1COC(c2ccc(CN3CCC(C(O)(c4ccc(OC(F)(F)F)cc4)c4ccc(OC(F)(F)F)cc4)CC3)cc2)O1 (centres unmarked) [Compound 3] | 100 | 100 | 
7 | OC(c1ccc(OC(F)(F)F)cc1)(c1ccc(OC(F)(F)F)cc1)C1CCN(Cc2ccc(C3OCCCO3)cc2)CC1 [Compound 4] | 100 | 100 | 
8 | [O-][N+]1(Cc2ccc(C3OCCCO3)cc2)CCC(C(O)(c2ccc(OC(F)(F)F)cc2)c2ccc(OC(F)(F)F)cc2)CC1 (centres unmarked) [Compound 5] | 100 | 100 | 
9 | [O-][N+]1(Cc2ccc(C3OCCCCO3)cc2)CCC(C(O)(c2ccc(OC(F)(F)F)cc2)c2ccc(OC(F)(F)F)cc2)CC1 (centres unmarked) [Compound 7] | 100 | 100 | 
10 | CC1(c2ccc(CN3CCC(C(O)(c4ccc(OC(F)(F)F)cc4)c4ccc(OC(F)(F)F)cc4)CC3)cc2)OCCO1 [Compound 8] | 100 | 100 | 
11 | CC1COC(c2ccc(C[N+]3([O-])CCC(C(O)(c4ccc(OC(F)(F)F)cc4)c4ccc(OC(F)(F)F)cc4)CC3)cc2)O1 (centres unmarked) [Compound 9] | 100 | 100 | 
12 | CC1(c2ccc(CN3CCC(C(O)(c4ccc(OC(F)(F)F)cc4)c4ccc(OC(F)(F)F)cc4)CC3)cc2)OCCCO1 [Compound 11] | 100 | 100 | 
13 | OC(c1ccc(OC(F)(F)F)cc1)(c1ccc(OC(F)(F)F)cc1)C1CCN(Cc2ccc(C3SCCS3)cc2)CC1 [Compound 15] | 100 | 100 | 
14 | OC(c1ccc(OC(F)(F)F)cc1)(c1ccc(OC(F)(F)F)cc1)C1CCN(Cc2ccc(C3OCCS3)cc2)CC1 (centres unmarked) [Compound 17] | 100 | 100 | 
15 | CN1CCN(C)C1c1ccc(CN2CCC(C(O)(c3ccc(OC(F)(F)F)cc3)c3ccc(OC(F)(F)F)cc3)CC2)cc1 [Compound 25] | 100 | 100 | 
16 | CC1(C)COC(c2ccc(CN3CCC(C(O)(c4ccc(OC(F)(F)F)cc4)c4ccc(OC(F)(F)F)cc4)CC3)cc2)OC1 [Compound 39] | 100 | 100 | 
17 | OC(c1ccc(OC(F)(F)F)cc1)(c1ccc(OC(F)(F)F)cc1)C1CCN(Cc2ccc(C3OCC4(CC4)CO3)cc2)CC1 [Compound 45] | 100 | 100 | 
18 | CC1CCOC(c2ccc(CN3CCC(C(O)(c4ccc(OC(F)(F)F)cc4)c4ccc(OC(F)(F)F)cc4)CC3)cc2)O1 (centres unmarked) [Compound 47] | 67 | 100 | 
19 | CCC1COC(c2ccc(CN3CCC(C(O)(c4ccc(OC(F)(F)F)cc4)c4ccc(OC(F)(F)F)cc4)CC3)cc2)O1 (centres unmarked) [Compound 48] | 100 | 100 | 
